One test deals with Bemisia argentifolii. As to the kind of experiment: Insecticidal activity against Bemisia argentifolii assessed as insect mortality at 500 ppm. It is filed as functional, organism-based.
A further test has as its system Tetranychus urticae. As to the kind of experiment: Miticidal activity against Tetranychus urticae (two-spotted spider mite) assessed as insect mortality at 500 ppm. Format: functional, organism-based.
Another test has as its system Botrytis cinerea. As to the kind of experiment: Fungicidal activity against Botryotinia fuckeliana at 500 ppm. Format: functional, organism-based.
Test [1] has as its system Myzus persicae. As to the kind of experiment: Insecticidal activity against Myzus persicae (green peach aphid) assessed as insect mortality at 100 ppm. Format: functional.
The subject of test [2] is Myzus persicae. As to the kind of experiment: Insecticidal activity against Myzus persicae (green peach aphid) assessed as insect mortality at 200 ppm. Format: functional.
The test system of test [3] is Frankliniella occidentalis. As to the kind of experiment: Insecticidal activity against Frankliniella occidentalis (western flower thrips) assessed as insect mortality at 500 ppm. Format: functional.
For another test, the system named is Podosphaera fuliginea. As to the kind of experiment: Fungicidal activity against Podosphaera fuliginea at 500 ppm. Format: functional, organism-based.
Test [4] concerns Frankliniella occidentalis. As to the kind of experiment: Antifeedant activity against Frankliniella occidentalis (western flower thrips) at 500 ppm. Format: functional, organism-based.
In another test the test system is Plutella xylostella. As to the kind of experiment: Insecticidal activity against Plutella xylostella (diamondback moth) assessed as insect mortality at 500 ppm. Format: functional, organism-based.

The structures appear in SMILES notation. Active and inactive are the calls of the source. The rule behind the calls is not given here.

In the case of `C=C(C)[C@]1(O)CC[C@]2(C)[C@H](CC=C(C)[C@]23Oc2cc(-c4cccnc4)oc(=O)c2[C@@H]3O)[C@@]12CCC(=O)OC2` [OXALICINE B], the outcome (with Bemisia argentifolii; with Tetranychus urticae; in the test on Botrytis cinerea; with Podosphaera fuliginea; in [4]; in the test with Plutella xylostella) was inactive. The mortality at 100 ppm with Myzus persicae [1] stood at 82%. In addition, the mortality at 200 ppm in the test with Myzus persicae [2] is 87%. In [3], the mortality at 500 ppm is 32%.

A word on the mortality: it is the share of the test organisms that died.

Values taken from ChEMBL document CHEMBL3044947, “Isolation of an insecticidal compound oxalicine B from Penicillium sp. TAMA 71 and confirmation of its chemical structure by X-ray crystallographic analysis” (2007).
